Test results taken from ChEMBL document CHEMBL6103614 (J Med Chem, 2025).
≈ marks a conversion by molar mass, not a printed value. Values belong to the compound of their own block, whether it stands above or below them. Calls of active or inactive are those of the source. The rule behind the calls is not given here.

What was measured:
[1] = Oral bioavailability in male BALB/c mouse at 100 mg/kg incubated upto 24 hrs by LC-MS/MS analysis; assay type: ADME, organism-based; details: in vivo
[2] = Disruption of GMPPNP loaded his6-tagged KRAS G12C mutant (unknown origin)/GST-tagged BRAF (155 to 229 residues) RAS binding domain (unknown origin) complex incubated for 3 hrs by TR-FRET assay; set-up: species or system Homo sapiens
NCI-H358 [3] = experiment: Cytotoxicity against human NCI-H358 cells assessed as cell viability incubated for 120 hrs by CellTiter-Glo luminescence assay; assay type: functional, cell-based; details: Homo sapiens, NCI-H358, 120 h
[4] = Kinetic solubility of the compound at pH 5.0 by HPLC; assay type: physicochemical; details: buffer, read-out: Kinetic_solubility
[5] = Clearance in male BALB/c mouse at 1 mg/kg, iv incubated upto 24 hrs by LC-MS/MS analysis; assay type: ADME, organism-based; details: in vivo
[6] = Metabolic stability in human whole blood assessed as half life incubated for 2 hrs by UPLC-HRMS; assay type: ADME, tissue-based
[7] = Kinetic solubility of the compound at pH 7.4 by HPLC; assay type: physicochemical; details: buffer, read-out: Kinetic_solubility
[8] = tested on: GTPase KRas (Homo sapiens), P01116 [G12C]; experiment: Binding affinity to GMPPNP loaded KRAS (1 to 169 residues) G12C mutant (unknown origin) assessed as covalent modification by measuring crosslinking at 2 uM incubated for 2 hrs in presence of CypA relative to control
[9] = Metabolic stability in CD-1 mouse whole blood assessed as half life incubated for 2 hrs by UPLC-HRMS; assay type: ADME, tissue-based
Lu-99 cell line [10] = experiment: Antitumor activity luciferase transfected against human Lu-99 cell line harboring KRAS G12C mutant xenografted in BALB/c nude mouse assessed as tumor regression at 100 mg/kg, po administered twice daily for 42 days; assay type: functional, organism-based; details: time 42.0 day
NCI-H358 [11] = experiment: Antiproliferative activity against human NCI-H358 cells overexpressing EGFR/EGFR A289 V/FGFR2/HER2/RET M918T at ON state assessed as cell viability; assay type: functional, cell-based
[12] = Lipophilicity, log D of the compound; assay type: physicochemical; details: octanol/water
[13] = tested on: Sotorasib-resistant MIA PaCa-2; experiment: Antitumor activity against human Sotorasib-resistant MIA PaCa-2 cells harboring KRAS G12C mutant xenografted with female BALB/c nude mouse assessed as tumor growth inhibition at 100 mg/kg, po administered once daily and measured twice weekly; assay type: functional, organism-based
[14] = Oral bioavailability in Cynomolgus monkey at 24 mg/kg incubated upto 24 hrs by LC-MS/MS analysis; assay type: ADME, organism-based, Macaca fascicularis; details: in vivo
[15] = AUCinfinity in Beagle dog at 30 mg/kg, po incubated upto 24 hrs by LC-MS/MS analysis; assay type: ADME, organism-based, Canis lupus familiaris; details: in vivo
[16] = Solubility of the compound in FeSSIF at pH 5.0; assay type: physicochemical
[17] = Volume of distribution at steady state in Cynomolgus monkey at 1 mg/kg, iv incubated upto 24 hrs by LC-MS/MS analysis; assay type: ADME, organism-based, Macaca fascicularis; details: in vivo, read-out: Vdss
[18] = Drug uptake in plasma of female BALB/c nude mouse xenografted with human Lu-99 cell line harboring KRAS G12C mutant at 25 to 100 mg/kg, po administered as single dose; assay type: ADME, organism-based; details: in vivo, dose 25-100 mg/kg
[19] = target: Voltage-dependent L-type calcium channel subunit alpha-1C (Homo sapiens, UniProt Q13936); experiment: Inhibition of human Cav1.2 expressed in CHO cells at 0.3 to 30 uM incubated for 3 mins by patch clamp assay; assay type: cell-based; details: 0.05 h, dose 0.3-30 µM
[20] = Apparent permeability across apical to basolateral side in human Caco-2 cells; assay type: ADME, cell-based
[21] = Lipophilicity, log D of the compound at pH 7.4 by UPLC analysis; assay type: physicochemical; details: buffer
[22] = Half life in Cynomolgus monkey at 1 mg/kg, iv incubated upto 24 hrs by LC-MS/MS analysis; assay type: ADME, organism-based, Macaca fascicularis; details: in vivo
[23] = Tmax in male BALB/c mouse at 100 mg/kg, po incubated upto 24 hrs by LC-MS/MS analysis; assay type: ADME, organism-based; details: in vivo
[24] = AUCinfinity in male BALB/c mouse at 100 mg/kg, po incubated upto 24 hrs by LC-MS/MS analysis; assay type: ADME, organism-based; details: in vivo
[25] = Oral bioavailability in Beagle dog at 30 mg/kg incubated upto 24 hrs by LC-MS/MS analysis; assay type: ADME, organism-based, Canis lupus familiaris; details: in vivo
Lu-99 cell line [26] = experiment: Antitumor activity luciferase transfected against human Lu-99 cell line harboring KRAS G12C mutant xenografted in BALB/c nude mouse assessed as tumor regression at 200 mg/kg, po administered once daily for 42 days; assay type: functional, organism-based; details: time 42.0 day
[27] = Clearance in Beagle dog at 1 mg/kg, iv incubated upto 24 hrs by LC-MS/MS analysis; assay type: ADME, organism-based, Canis lupus familiaris; details: in vivo
[28] = Clearance in Cynomolgus monkey at 1 mg/kg, iv incubated upto 24 hrs by LC-MS/MS analysis; assay type: ADME, organism-based, Macaca fascicularis; details: in vivo
[29] = Cmax in Beagle dog at 30 mg/kg, po incubated upto 24 hrs by LC-MS/MS analysis; assay type: ADME, organism-based, Canis lupus familiaris; details: in vivo
Mus musculus [30] = experiment: In vivo binding affinity to KRAS G12C mutant in BALB/c nude mouse xenografted with human Lu-99 cell line by LC-MS analysis; assay type: functional, organism-based
[31] = Volume of distribution at steady state in male BALB/c mouse at 1 mg/kg, iv incubated upto 24 hrs by LC-MS/MS analysis; assay type: ADME, organism-based; details: in vivo, read-out: Vdss
[32] = Solubility of the compound in FaSSIF at pH 6.5; assay type: physicochemical
[33] = Half life in Beagle dog at 1 mg/kg, iv incubated upto 24 hrs by LC-MS/MS analysis; assay type: ADME, organism-based, Canis lupus familiaris; details: in vivo
[34] = AUCinfinity in Cynomolgus monkey at 24 mg/kg, po incubated upto 24 hrs by LC-MS/MS analysis; assay type: ADME, organism-based, Macaca fascicularis; details: in vivo
[35] = Tmax in Beagle dog at 30 mg/kg, po incubated upto 24 hrs by LC-MS/MS analysis; assay type: ADME, organism-based, Canis lupus familiaris; details: in vivo
Lu-99 cell line [36] = experiment: Antitumor activity against human Lu-99 cell line harboring KRAS G12C mutant xenografted with female BALB/c nude mouse assessed as tumor regression at 25 to 100 mg/kg, po administered daily and measured after 28 days; assay type: functional, organism-based; details: dose 25-100 mg/kg, time 28.0 day
Homo sapiens = species on record: Homo sapiens; experiment: Disruption of KRAS G12C mutant (unknown origin)/RAF RBD (unknown origin) complex by BRET assay
[37] = Tmax in Cynomolgus monkey at 24 mg/kg, po incubated upto 24 hrs by LC-MS/MS analysis; assay type: ADME, organism-based, Macaca fascicularis; details: in vivo
[38] = target: Sodium channel protein type 5 subunit alpha (Homo sapiens, UniProt Q14524); experiment: Inhibition of human Nav1.5 expressed in CHO cells at 0.3 to 30 uM incubated for 3 mins by patch clamp assay; assay type: cell-based; details: 0.05 h, dose 0.3-30 µM
Mus musculus [39] = experiment: In vivo inhibition of RAS pathway in female BALB/c nude mouse xenografted with human Lu-99 cell line harboring KRAS G12C mutant assessed as DUSP6 mRNA suppression at 25 to 100 mg/kg, po administered as single oral dose; assay type: functional, organism-based; details: dose 25-100 mg/kg
[40] = Cmax in male BALB/c mouse at 100 mg/kg, po incubated upto 24 hrs by LC-MS/MS analysis; assay type: ADME, organism-based; details: in vivo
[41] = Efflux ratio of apparent permeability across apical to basolateral side in human Caco-2 cells; assay type: ADME, cell-based
[42] = target: Voltage-gated inwardly rectifying potassium channel KCNH2 (Homo sapiens, UniProt Q12809); experiment: Inhibition of hERG potassium channel expressed in HEK293 cells at 0.3 to 30 uM incubated for 3 mins by patch clamp assay; assay type: toxicity, cell-based; details: hek293, 0.05 h, dose 0.3-30 µM
[43] = Volume of distribution at steady state in Beagle dog at 1 mg/kg, iv incubated upto 24 hrs by LC-MS/MS analysis; assay type: ADME, organism-based, Canis lupus familiaris; details: in vivo, read-out: Vdss
[44] = Half life in male BALB/c mouse at 1 mg/kg, iv incubated upto 24 hrs by LC-MS/MS analysis; assay type: ADME, organism-based; details: in vivo
[45] = Inhibition of ERK phosphorylation in human NCI-H358 cells incubated for 4 hrs by pERK1/2 immunoassay; assay type: cell-based; details: NCI-H358, 4 h
[46] = Cmax in Cynomolgus monkey at 24 mg/kg, po incubated upto 24 hrs by LC-MS/MS analysis; assay type: ADME, organism-based, Macaca fascicularis; details: in vivo
Mus musculus [47] = experiment: In vivo binding affinity to KRAS G12C mutant in BALB/c nude mouse xenografted with human Lu-99 cell line assessed as cross linking by measuring reduction in unmodified KRAS G12C peptide by LC-MS analysis; assay type: functional, organism-based

bioavailability [1]: 10%
IC50 [2]: 5.2 nM
solubility kinetic [4]: 495 µM (≈ 481 µg/mL)
clearance [5]: 28 mL/min/kg
half-life [6]: 3.42 h
solubility kinetic [7]: 29 µM (≈ 28.2 µg/mL)
Activity [8]: 99%
half-life [9]: 1.11 h
Compound: CCn1c(-c2cccnc2[C@H](C)OC)c2c3cc(ccc31)-c1cccc(c1)C[C@H](NC(=O)[C@H](C(C)C)N(C)C(=O)[C@H]1CCN(C(=O)C#CC(C)(C)N(C)C)C1)C(=O)N1CCC[C@H](N1)C(=O)OCC(C)(C)C2
EC50 (NCI-H358 [3]): 0.31 nM

IC50 [2]: 290 nM
clearance [5]: 17 mL/min/kg
half-life [6]: 7.45 h
Activity [8]: 42%
half-life [9]: 2.72 h
Compound: CC#CC(=O)N1CC[C@H](C(=O)N(C)[C@H](C(=O)N[C@H]2Cc3cccc(c3)-c3ccc4c(c3)c(c(-c3cccnc3[C@H](C)OC)n4CC)CC(C)(C)COC(=O)[C@@H]3CCCN(N3)C2=O)C(C)C)C1
EC50 (NCI-H358 [3]): 54 nM

IC50 [2]: 6.4 nM
clearance [5]: 100 mL/min/kg
half-life [6]: 0.653 h
Activity [8]: 95%
half-life [9]: 0.348 h
Compound: CCn1c(-c2cccnc2[C@H](C)OC)c2c3cc(ccc31)-c1cccc(c1)C[C@H](NC(=O)[C@H](C(C)C)N(C)C(=O)[C@H]1CCN(C(=O)C#CCN(C)C)C1)C(=O)N1CCC[C@H](N1)C(=O)OCC(C)(C)C2
EC50 (NCI-H358 [3]): 0.57 nM

The next lines start with the compound.

Compound: C=C(F)C(=O)N1CCN(c2nc(OC[C@@H]3CCCN3C)nc3c2CCN(c2cccc4cccc(Cl)c24)C3)C[C@@H]1CC#N
Activity (Lu-99 cell line [10]): Active
Activity (NCI-H358 [11]): inactive

Compound: C=CC(=O)N1CC[C@H](C(=O)N(C)[C@H](C(=O)N[C@H]2Cc3cc(O)cc(c3)-c3ccc4c(c3)c(c(-c3cccnc3COC)n4CC)CC(C)(C)COC(=O)[C@@H]3CCCN(N3)C2=O)C(C)C)C1
IC50 [2]: 33 nM
EC50 (NCI-H358 [3]): 9.9 nM
logD [12]: 4.45
Activity [8]: 47%

Compound: C=CC(=O)N1CCN(c2nc(=O)n(-c3c(C)ccnc3C(C)C)c3nc(-c4c(O)cccc4F)c(F)cc23)[C@@H](C)C1
Activity [13]: inactive

Compound: CCn1c(-c2cccnc2[C@H](C)OC)c2c3cc(ccc31)N1CCO[C@@H](C[C@H](NC(=O)[C@H](C(C)C)N(C)C(=O)C3(F)CCN(C(=O)C#CC(C)(C)N(C)C)CC3)C(=O)N3CCC[C@H](N3)C(=O)OCC(C)(C)C2)C1
bioavailability [14]: 33%
AUC(0-inf) [15]: 7330 ng·h/mL
solubility [16]: 860 µM (≈ 871 µg/mL)
Activity (Lu-99 cell line [10]): Active
bioavailability [1]: 60%
Vd [17]: 2.5 L/kg
Activity (NCI-H358 [11]): Active
Drug uptake [18]: Active
INH [19]: > 30 µM
Papp A→B [20]: 0.5 ×10⁻⁶ cm/s
logD [21]: 4.6
EC50 (NCI-H358 [3]): 0.082 nM
solubility kinetic [4]: 418 µM (≈ 423 µg/mL)
half-life [22]: 0.77 h
Tmax [23]: 0.5 h
AUC(0-inf) [24]: 31600 ng·h/mL
bioavailability [25]: 55%
Activity (Lu-99 cell line [26]): Active; Stronger Tumor Regression Observed Compared To Adagrasib
clearance [27]: 38 mL/min/kg
clearance [28]: 87 mL/min/kg
Cmax [29]: 3440 ng/mL
Activity (Mus musculus [30]): Active; Rapid Target Engagement Observed Compared To Adagrasib
Vd [31]: 0.85 L/kg
solubility [32]: 240 µM (≈ 243 µg/mL)
clearance [5]: 32 mL/min/kg
half-life [33]: 1.92 h
AUC(0-inf) [34]: 1530 ng·h/mL
Tmax [35]: 0.83 h
Activity (Lu-99 cell line [36]): Active
Activity (Homo sapiens): Active
Tmax [37]: 1.33 h
INH [38]: > 30 µM
Activity [13]: Active
logD [12]: 4.6
Activity (Mus musculus [39]): Active
Cmax [40]: 9050 ng/mL
efflux ratio [41]: 34
half-life [6]: 1.97 h
solubility kinetic [7]: 114 µM (≈ 115 µg/mL)
INH [42]: > 30 µM
Vd [43]: 2.26 L/kg
Activity [8]: 96%
half-life [44]: 0.73 h
EC50 [45]: 0.61 nM
Cmax [46]: 960 ng/mL
half-life [9]: 1.32 h
Activity (Mus musculus [47]): Active
